The subject of series [1] is S. aureus (29): reference (5) and clinical (24) strains. The following applies: for Mean value of MIC: mean over 29 S. aureus strains (Table 5). How it is done: Microbiological assays were performed using reference and clinical strains of Staphylococcus aureus. Minimal inhibitory concentrations (MIC) were determined by broth microdilution method on 96-well polystyrene plates according to Clinical and Laboratory Standards Institute (CLSI) recommendations [Clinical and Laboratory Standards Institute (CLSI) [2012]]. […] All plates were incubated for 18 h at 37 °C. […] Reference strains of S. aureus: ATCC 6538, ATCC 6538/P, ATCC 9144, ATCC 12598, and ATCC 25923 were obtained from the Polish Collection of Microorganisms (PCM, Polish Academy of Sciences, Wrocław), whereas 24 clinical strains were isolated from the patients of the Clinic of Dermatology, Venereology and Allergology (Medical University of Gdańsk). Nine strains were characterized as methicillin-resistant (MRSA). Preliminary identification and detection was conducted on the ChromID MRSA/ChromID S. aureus biplate (bioMérieux) for the simultaneous detection of S. aureus and methicillin-resistant S. aureus (MRSA). All experiments were conducted at least in triplicate.
To asses an overall activity of peptides, the mean MIC values were calculated.

The test system of series [2] is human red blood cells (RBCs).
Experimental: Fresh human red blood cells (RBCs) with EDTA as anticoagulant were rinsed three times with phosphate-buffer saline (PBS) by centrifugation at 800 × g for 10 min and resuspended in PBS. […] Then, the stock solution of RBCs was added to reach a final volume of 100 µL with 4% concentration of erythrocytes (v/v). The control wells for 0% hemolysis and 100% hemolysis consisted of RBCs suspended in PBS and 1% of Triton X–100, respectively. Subsequently, the plates were incubated for 60 min at 37 °C and then centrifuged at 800 × g for 10 min at 4 °C (Sorvall ST 16R Centrifuge, Thermo Scientific). After centrifugation, the supernatant was carefully resuspended to new microtiter plates and the release of hemoglobin was monitored by measurement of absorbance at 540 nm (Multiskan™ GO Microplate Spectrophotometer, Thermo Scientific). All experiments were conducted in triplicate.
The conditions of series [3]: prolonged storage; in words; ref Nayan Desai [2013]; cited from earlier work.
In a further series the test system is S. aureus 001N (MRSA). It is filed as cell-based, Staphylococcus aureus. The following applies: clinical strain, broth microdilution, 0.5 × 10^5 CFU/mL, 18 h, 37 °C, at least triplicate. How it is done:
(§1) Microbiological assays were performed using reference and clinical strains of Staphylococcus aureus. Minimal inhibitory concentrations (MIC) were determined by broth microdilution method on 96-well polystyrene plates according to Clinical and Laboratory Standards Institute (CLSI) recommendations [Clinical and Laboratory Standards Institute (CLSI) [2012]]. For this purpose, the initial inoculums of 0.5 × 10^5 CFU/mL of bacteria were exposed to a range of concentrations of the peptides (0.5–256 µg/mL). All plates were incubated for 18 h at 37 °C. MIC was taken as the lowest concentration of the compound at which the growth of bacteria was not observed. Reference strains of S. aureus: ATCC 6538, ATCC 6538/P, ATCC 9144, ATCC 12598, and ATCC 25923 were obtained from the Polish Collection of Microorganisms (PCM, Polish Academy of Sciences, Wrocław), whereas 24 clinical strains were isolated from the patients of the Clinic of Dermatology, Venereology and Allergology (Medical University of Gdańsk). Nine strains were characterized as methicillin-resistant (MRSA). Preliminary identification and detection was conducted on the ChromID MRSA/ChromID S. aureus biplate (bioMérieux) for the simultaneous detection of S. aureus and methicillin-resistant S. aureus (MRSA). All experiments were conducted at least in triplicate.

The next series deals with S. aureus 001S (MRSA). It counts as cell-based, Staphylococcus aureus. The following applies: clinical strain, broth microdilution, 0.5 × 10^5 CFU/mL, 18 h, 37 °C, at least triplicate. How it is done: as §1
Another series concerns S. aureus 002N. It counts as cell-based, Staphylococcus aureus. To be noted: clinical strain, broth microdilution, 0.5 × 10^5 CFU/mL, 18 h, 37 °C, at least triplicate. How it is done:
as §1

The next series has as its system S. aureus 002S. It is filed as cell-based, Staphylococcus aureus. The following applies: clinical strain, broth microdilution, 0.5 × 10^5 CFU/mL, 18 h, 37 °C, at least triplicate. How it is done:
as §1

A further series relates to S. aureus 004N (MRSA). It is filed as cell-based, Staphylococcus aureus. The following applies: clinical strain, broth microdilution, 0.5 × 10^5 CFU/mL, 18 h, 37 °C, at least triplicate. How it is done: as §1
The subject of the next series is S. aureus 005S. It is filed as cell-based, Staphylococcus aureus. The following applies: clinical strain, broth microdilution, 0.5 × 10^5 CFU/mL, 18 h, 37 °C, at least triplicate. How it is done: as §1
For the next series, the system named is S. aureus 013S. It counts as cell-based, Staphylococcus aureus. The following applies: clinical strain, broth microdilution, 0.5 × 10^5 CFU/mL, 18 h, 37 °C, at least triplicate. How it is done: as §1
For another series, the system named is S. aureus 015N (MRSA). It is filed as cell-based, Staphylococcus aureus. The following applies: clinical strain, broth microdilution, 0.5 × 10^5 CFU/mL, 18 h, 37 °C, at least triplicate. How it is done:
as §1

The test system of the next series is S. aureus 017N (MRSA). It is filed as cell-based, Staphylococcus aureus. The following applies: clinical strain, broth microdilution, 0.5 × 10^5 CFU/mL, 18 h, 37 °C, at least triplicate. How it is done:
as §1

The next series relates to S. aureus 017S (MRSA). It is filed as cell-based, Staphylococcus aureus. The following applies: clinical strain, broth microdilution, 0.5 × 10^5 CFU/mL, 18 h, 37 °C, at least triplicate. How it is done: as §1
The test system of the next series is S. aureus 024N (MRSA). It is filed as cell-based, Staphylococcus aureus. The following applies: clinical strain, broth microdilution, 0.5 × 10^5 CFU/mL, 18 h, 37 °C, at least triplicate. How it is done: as §1
A further series concerns S. aureus 030N. It counts as cell-based, Staphylococcus aureus. The following applies: clinical strain, broth microdilution, 0.5 × 10^5 CFU/mL, 18 h, 37 °C, at least triplicate. How it is done: as §1
For the next series, the system named is S. aureus 033N. It counts as cell-based, Staphylococcus aureus. The following applies: clinical strain, broth microdilution, 0.5 × 10^5 CFU/mL, 18 h, 37 °C, at least triplicate. How it is done:
as §1

The next series relates to S. aureus 039N. It counts as cell-based, Staphylococcus aureus. To be noted: clinical strain, broth microdilution, 0.5 × 10^5 CFU/mL, 18 h, 37 °C, at least triplicate. How it is done: as §1
For a further series, the system named is S. aureus 043SC (MRSA). It counts as cell-based, Staphylococcus aureus. To be noted: clinical strain, broth microdilution, 0.5 × 10^5 CFU/mL, 18 h, 37 °C, at least triplicate. How it is done:
as §1

For a further series, the system named is S. aureus 045N. It is filed as cell-based, Staphylococcus aureus. The following applies: clinical strain, broth microdilution, 0.5 × 10^5 CFU/mL, 18 h, 37 °C, at least triplicate. How it is done:
as §1

In a further series the test system is S. aureus 048S. It counts as cell-based, Staphylococcus aureus. The following applies: clinical strain, broth microdilution, 0.5 × 10^5 CFU/mL, 18 h, 37 °C, at least triplicate. How it is done:
as §1

A further series concerns S. aureus 051N (MRSA). It counts as cell-based, Staphylococcus aureus. To be noted: clinical strain, broth microdilution, 0.5 × 10^5 CFU/mL, 18 h, 37 °C, at least triplicate. How it is done: as §1
Another series deals with S. aureus 051S. It counts as cell-based, Staphylococcus aureus. To be noted: clinical strain, broth microdilution, 0.5 × 10^5 CFU/mL, 18 h, 37 °C, at least triplicate. How it is done:
as §1

In another series the test system is S. aureus 053N. It counts as cell-based, Staphylococcus aureus. The following applies: clinical strain, broth microdilution, 0.5 × 10^5 CFU/mL, 18 h, 37 °C, at least triplicate. How it is done:
as §1

For a further series, the system named is S. aureus 060S. It is filed as cell-based, Staphylococcus aureus. The following applies: clinical strain, broth microdilution, 0.5 × 10^5 CFU/mL, 18 h, 37 °C, at least triplicate. How it is done: as §1
Another series concerns S. aureus ATCC 12598. It counts as cell-based, Staphylococcus aureus. The following applies: ATCC 12598, reference strain; broth microdilution, 0.5 × 10^5 CFU/mL, 18 h, 37 °C, at least triplicate. How it is done: as §1
For another series, the system named is S. aureus ATCC 25923. It is filed as cell-based, Staphylococcus aureus. The following applies: ATCC 25923, reference strain; broth microdilution, 0.5 × 10^5 CFU/mL, 18 h, 37 °C, at least triplicate. How it is done:
as §1

A further series relates to S. aureus ATCC 6538/P. It counts as cell-based, Staphylococcus aureus. The following applies: reference strain, broth microdilution, 0.5 × 10^5 CFU/mL, 18 h, 37 °C, at least triplicate. How it is done: as §1
The next series concerns S. aureus ATCC 6538. It counts as cell-based, Staphylococcus aureus. The following applies: ATCC 6538, reference strain; broth microdilution, 0.5 × 10^5 CFU/mL, 18 h, 37 °C, at least triplicate. How it is done:
as §1

The next series has as its system S. aureus ATCC 9144. It is filed as cell-based, Staphylococcus aureus. To be noted: ATCC 9144, reference strain; broth microdilution, 0.5 × 10^5 CFU/mL, 18 h, 37 °C, at least triplicate. How it is done:
as §1

The next series relates to S. aureus K19N. It counts as cell-based, Staphylococcus aureus. The following applies: clinical strain, broth microdilution, 0.5 × 10^5 CFU/mL, 18 h, 37 °C, at least triplicate. How it is done: as §1
A further series deals with S. aureus K46N. It counts as cell-based, Staphylococcus aureus. To be noted: clinical strain, broth microdilution, 0.5 × 10^5 CFU/mL, 18 h, 37 °C, at least triplicate. How it is done: as §1
The test system of another series is S. aureus K50S. It is filed as cell-based, Staphylococcus aureus. To be noted: clinical strain, broth microdilution, 0.5 × 10^5 CFU/mL, 18 h, 37 °C, at least triplicate. How it is done: as §1

Where no end group is shown, it is not given here. Some results are limits rather than exact numbers.

FLPLIGRVLSGIL-NH2 [Temporin A]: the “MIC range among strains” value in series [1] (range over all S. aureus strains and the salts of the peptide) fell in the range of 2 to 8 µg/mL. This substance came in with a hemolysis in [2] (at 256 µg/mL, human RBCs 4% (v/v) in PBS, 60 min, 37 °C, absorbance 540 nm, 100% = 1% Triton X-100, triplicate) not above 4%. The “hemolysis of RBCs” value in [2] (human RBCs, in words) is “almost undetectable”.

Turning to “GIGKFLKKAKKFGKAFVKILKK-NH2 [Pexiganan AcO^−]”, the “Mean value of MIC” value in [1] is recorded as 7.1 µg/mL. Besides, in series [2] (human RBCs, at the mean MIC value, in words), the “hemolysis of RBCs at the mean MIC value” was “ignorable”. Besides, the “stability of the salt form” value in series [3] is on record as “the most stable even during prolonged storage”.

Consider KWKLFKKIGAVLKVL-NH2 [CAMEL TFA^−], for which the MIC is 4 µg/mL in the series on S. aureus 001N (MRSA); 4 µg/mL with S. aureus 001S (MRSA); 4 µg/mL in the series on S. aureus 002N; 4 µg/mL in the series on S. aureus 002S; 4 µg/mL against S. aureus 004N (MRSA); “≤ (≤ alone stands for MIC ≤ 0.25 µg/mL)” against S. aureus 005S. Further, the MIC entry in the series with S. aureus 013S was “≤ (≤ alone stands for MIC ≤ 0.25 µg/mL)”; in the series on S. aureus 015N (MRSA), 4 µg/mL; against S. aureus 017N (MRSA), 4 µg/mL; with S. aureus 017S (MRSA), 2 µg/mL; against S. aureus 024N (MRSA), “≤ (≤ alone stands for MIC ≤ 0.25 µg/mL)”; in the series on S. aureus 030N, 4 µg/mL. Besides, the MIC with S. aureus 033N, in the series with S. aureus 039N, against S. aureus 043SC (MRSA), with S. aureus 045N, against S. aureus 048S and with S. aureus 051N (MRSA) was 4 µg/mL each time. Moreover, the minimal inhibitory concentration (MIC) against S. aureus 051S was 2 µg/mL; in the series on S. aureus 053N, 4 µg/mL; against S. aureus 060S, 2 µg/mL; against S. aureus ATCC 12598, 4 µg/mL; with S. aureus ATCC 25923, 8 µg/mL; with S. aureus ATCC 6538/P, 4 µg/mL. The minimum inhibitory concentration (MIC) in the series on S. aureus ATCC 6538 amounted to 2 µg/mL; in the series on S. aureus ATCC 9144 it was 8 µg/mL; against S. aureus K19N, 4 µg/mL; with S. aureus K46N, 4 µg/mL; in the series on S. aureus K50S it was 1 µg/mL. Also, in series [1], the “Mean value of MIC” value is not above 3.5 µg/mL. In addition, the “Mean MIC values” in series [1] (mean over 29 S. aureus strains, as repeated in Table 6) is reported as not above 3.5 µg/mL.
